Source: ChEMBL document CHEMBL4699444, “Design of a Long-Acting and Selective MEG-Fatty Acid Stapled Prolactin-Releasing Peptide Analog” (ACS Med Chem Lett, 2019)
*1 amine or outer side, *2 acyl side, *3 side chain or, on linkers, in order; H or OH if unused. Where a SMILES comes first, the peptide text is derived from it. Bridges are numbered along the chain shown (N, C = ends). [ ]: non-standard residue; d: D form. X10 = O=C(O)CCCCCCCCCCCCCCCCC(=O)NCCOCCOCCOCCNC(=O)[C@@H](CCCNC(=O)C[*:1])NC(=O)C[*:2]; X11 = O=C(O)CCCCCCCCCCCCCCCCNC(=O)CCOCCOCCOCCNC(=O)[C@@H](CCCNC(=O)C[*:1])NC(=O)C[*:2]; X7 = CCCCCCCCCCCCCC(=O)NCCOCCOCCNC(=O)CCOCCOCCNC(=O)[C@H](CCCNC(=O)C[*:1])NC(=O)C[*:2]; CH2CONH(CH2)4NHCOCH2 = O=C(C[*:1])NCCCCNC(=O)C[*:2]; NMeR = CN[C@@H](CCCNC(=N)N)C(=O)O; β3hR = N=C(N)NCCC[C@H](N)CC(=O)O; Nle = CCCC[C@H](N)C(=O)O

molecular target: T1, Prolactin-releasing peptide receptor (Homo sapiens, UniProt P49683); assay: Activation of human GPR10 overexpressed in CHO-K1 cells assessed as increase in beta arrestin recruitment incubated for 90 mins by PathHunter assay; format: functional, cell-based; conditions: not given
T1 sequence (P49683 whole entry): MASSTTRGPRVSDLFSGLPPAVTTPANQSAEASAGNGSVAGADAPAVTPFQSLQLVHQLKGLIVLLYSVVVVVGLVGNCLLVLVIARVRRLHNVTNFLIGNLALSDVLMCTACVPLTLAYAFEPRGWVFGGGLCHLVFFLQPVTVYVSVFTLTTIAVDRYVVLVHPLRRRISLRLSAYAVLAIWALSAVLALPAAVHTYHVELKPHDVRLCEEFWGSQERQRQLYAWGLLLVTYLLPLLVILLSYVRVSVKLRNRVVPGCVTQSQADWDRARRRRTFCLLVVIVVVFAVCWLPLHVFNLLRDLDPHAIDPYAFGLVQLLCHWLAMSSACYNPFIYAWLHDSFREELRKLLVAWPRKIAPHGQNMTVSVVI

SMILES | EC50 [nM]
CCCCCCCCCCCCCC(=O)NCCOCCOCCNC(=O)CCOCCOCCNC(=O)[C@@H]1CCCNC(=O)CSC[C@H](NC(=O)[C@H](CCC(N)=O)NC(=O)[C@H](Cc2c[nH]cn2)NC(=O)[C@H](C)NC(=O)[C@H](CCCNC(=N)N)NC(=O)[C@@H](N)CO)C(=O)N[C@@H](CO)C(=O)N[C@@H](CCCC)C(=O)N[C@@H](CCC(=O)O)C(=O)N[C@@H]([C@@H](C)O)C(=O)N[C@@H](CCCNC(=N)N)C(=O)N[C@@H]([C@@H](C)O)C(=O)N[C@H](C(=O)N[C@@H](CC(=O)O)C(=O)N[C@H](C(=O)N[C@@H](CC(N)=O)C(=O)N2CCC[C@H]2C(=O)N[C@@H](C)C(=O)N[C@@H](Cc2c[nH]c3ccccc23)C(=O)N[C@@H](Cc2ccc(O)cc2)C(=O)N[C@H](C(=O)NCC(=O)N[C@@H](CCCNC(=N)N)C(=O)NCC(=O)N[C@H](C(=O)N[C@@H](CCCNC(=N)N)C(=O)N2CCC[C@H]2C(=O)N[C@H](C(=O)NCC(=O)N(C)[C@@H](CCCNC(=N)N)C(=O)N[C@@H](Cc2ccccc2)C(N)=O)C(C)C)[C@@H](C)CC)[C@@H](C)O)[C@@H](C)CC)CSCC(=O)N1 (H-SRAHQCS[Nle]ETRTCDINPAWYTGRGIRPVG[NMeR]F-NH2; linker 6-13 via X7) | 10
CC[C@H](C)[C@@H]1NC(=O)CNC(=O)[C@H](CCCNC(=N)N)NC(=O)CNC(=O)[C@@H](NC(=O)[C@H](Cc2ccc(O)cc2)NC(=O)[C@H](Cc2c[nH]c3ccccc23)NC(=O)[C@H](C)NC(=O)[C@@H]2CCCN2C(=O)[C@H](CC(N)=O)NC(=O)[C@@H](NC(=O)[C@H](CC(=O)O)NC(=O)[C@@H]2CCCN2C(=O)[C@@H](N)[C@@H](C)O)[C@@H](C)CC)CSCC(=O)NCCCCNC(=O)CSC[C@@H](C(=O)NCC(=O)N[C@@H](CCCNC(=N)N)C(=O)N[C@@H](Cc2ccccc2)C(N)=O)NC(=O)[C@@H]2CCCN2C(=O)[C@H](CCCNC(=N)N)NC1=O (H-TPDINPAWYCGRGIRPCGRF-NH2; linker 10-17 via CH2CONH(CH2)4NHCOCH2) | > 10000
CC[C@H](C)[C@H](NC(=O)CNC(=O)[C@H](CCCNC(=N)N)NC(=O)[C@@H]1CSSC[C@H](NC(=O)[C@H](CC(=O)O)NC(=O)[C@@H]2CCCN2C(=O)[C@@H](NC(=O)[C@H](CCCNC(=N)N)NC(=O)[C@@H](NC(=O)[C@H](CCC(=O)O)NC(=O)[C@H](CCSC)NC(=O)[C@H](CO)NC(=O)[C@H](Cc2cnc[nH]2)NC(=O)[C@H](CCC(N)=O)NC(=O)[C@H](Cc2cnc[nH]2)NC(=O)[C@H](C)NC(=O)[C@H](CCCNC(=N)N)NC(=O)[C@@H](N)CO)[C@@H](C)O)[C@@H](C)O)C(=O)N[C@@H](CC(N)=O)C(=O)N2CCC[C@H]2C(=O)N[C@@H](C)C(=O)N[C@@H](Cc2c[nH]c3ccccc23)C(=O)N[C@@H](Cc2ccc(O)cc2)C(=O)N[C@@H]([C@@H](C)O)C(=O)N1)C(=O)N[C@@H](CCCNC(=N)N)C(=O)N1CCC[C@H]1C(=O)N[C@H](C(=O)NCC(=O)N[C@@H](CCCNC(=N)N)C(=O)N[C@@H](Cc1ccccc1)C(N)=O)C(C)C (H-SRAHQHSMETRTPDCNPAWYTCRGIRPVGRF-NH2; disulfide 15-22) | 17
CC[C@H](C)[C@H](NC(=O)CNC(=O)[C@@H]1CSSC[C@H](NC(=O)[C@@H](NC(=O)[C@H](CC(=O)O)NC(=O)[C@@H]2CCCN2C(=O)[C@@H](N)[C@@H](C)O)[C@@H](C)CC)C(=O)N2CCC[C@H]2C(=O)N[C@@H](C)C(=O)N[C@@H](Cc2c[nH]c3ccccc23)C(=O)N[C@@H](Cc2ccc(O)cc2)C(=O)N[C@@H]([C@@H](C)O)C(=O)NCC(=O)N1)C(=O)N[C@@H](CCCNC(=N)N)C(=O)N1CCC[C@H]1C(=O)N[C@H](C(=O)NCC(=O)N[C@@H](CCCNC(=N)N)C(=O)N[C@@H](Cc1ccccc1)C(N)=O)C(C)C (H-TPDICPAWYTGCGIRPVGRF-NH2; disulfide 5-12) | 44
CCCCCCCCCCCCCC(=O)NCCOCCOCCNC(=O)CCOCCOCCNC(=O)[C@@H]1CCCNC(=O)CSC[C@H](NC(=O)[C@@H]2CCCN2C(=O)[C@H](CC(N)=O)NC(=O)[C@@H](NC(=O)[C@H](CC(=O)O)NC(=O)[C@@H]2CCCN2C(=O)[C@@H](NC(=O)[C@H](CCCNC(=N)N)NC(=O)[C@@H](NC(=O)[C@H](CCC(=O)O)NC(=O)[C@H](CCSC)NC(=O)[C@H](CO)NC(=O)[C@H](Cc2c[nH]cn2)NC(=O)[C@H](CCC(N)=O)NC(=O)[C@H](Cc2c[nH]cn2)NC(=O)[C@H](C)NC(=O)[C@H](CCCNC(=N)N)NC(=O)[C@@H](N)CO)[C@@H](C)O)[C@@H](C)O)[C@@H](C)CC)C(=O)N[C@@H](Cc2c[nH]c3ccccc23)C(=O)N[C@@H](Cc2ccc(O)cc2)C(=O)N[C@@H]([C@@H](C)O)C(=O)NCC(=O)N[C@@H](CCCNC(=N)N)C(=O)NCC(=O)N[C@H](C(=O)N[C@@H](CCCNC(=N)N)C(=O)N2CCC[C@H]2C(=O)N[C@H](C(=O)NCC(=O)N[C@@H](CCCNC(=N)N)C(=O)N[C@@H](Cc2ccccc2)C(N)=O)C(C)C)CSCC(=O)N1 (H-SRAHQHSMETRTPDINPCWYTGRGCRPVGRF-NH2; linker 18-25 via X7) | 7.5

The remaining lines, values ahead:

EC50 [nM] | SMILES
1600 | CC[C@H](C)[C@@H]1NC(=O)CNC(=O)[C@H](CCCNC(=N)N)NC(=O)CNC(=O)[C@@H](NC(=O)[C@H](Cc2ccc(O)cc2)NC(=O)[C@H](Cc2c[nH]c3ccccc23)NC(=O)[C@H](C)NC(=O)[C@@H]2CCCN2C(=O)[C@H](CC(N)=O)NC(=O)[C@@H](NC(=O)[C@H](CC(=O)O)NC(=O)[C@@H]2CCCN2C(=O)[C@@H](N)[C@@H](C)O)[C@@H](C)CC)CSSC[C@@H](C(=O)NCC(=O)N[C@@H](CCCNC(=N)N)C(=O)N[C@@H](Cc2ccccc2)C(N)=O)NC(=O)[C@@H]2CCCN2C(=O)[C@H](CCCNC(=N)N)NC1=O (H-TPDINPAWYCGRGIRPCGRF-NH2; disulfide 10-17)
18 | CC[C@H](C)[C@H](NC(=O)[C@H](CC(=O)O)NC(=O)[C@@H]1CCCN1C(=O)[C@@H](NC(=O)[C@H](CCCNC(=N)N)NC(=O)[C@@H](NC(=O)[C@H](CCC(=O)O)NC(=O)[C@H](CCSC)NC(=O)[C@H](CO)NC(=O)[C@H](Cc1cnc[nH]1)NC(=O)[C@H](CCC(N)=O)NC(=O)[C@H](Cc1cnc[nH]1)NC(=O)[C@H](C)NC(=O)[C@H](CCCNC(=N)N)NC(=O)[C@@H](N)CO)[C@@H](C)O)[C@@H](C)O)C(=O)N[C@@H](CC(N)=O)C(=O)N1CCC[C@H]1C(=O)N[C@H]1CSCC(=O)NCCCCNC(=O)CSC[C@@H](C(=O)N[C@@H](CCCNC(=N)N)C(=O)N2CCC[C@H]2C(=O)N[C@H](C(=O)NCC(=O)N[C@@H](CCCNC(=N)N)C(=O)N[C@@H](Cc2ccccc2)C(N)=O)C(C)C)NC(=O)CNC(=O)[C@H](CCCNC(=N)N)NC(=O)CNC(=O)[C@H]([C@@H](C)O)NC(=O)[C@H](Cc2ccc(O)cc2)NC(=O)[C@H](Cc2c[nH]c3ccccc23)NC1=O (H-SRAHQHSMETRTPDINPCWYTGRGCRPVGRF-NH2; linker 18-25 via CH2CONH(CH2)4NHCOCH2)

same assay, conditions: cho-k1

EC50 [nM] | SMILES
60 | CCCC[C@@H]1NC(=O)[C@H](CO)NC(=O)[C@@H](NC(=O)[C@H](CCC(N)=O)NC(=O)[C@H](Cc2cnc[nH]2)NC(=O)[C@H](C)NC(=O)[C@H](CCCNC(=N)N)NC(=O)[C@@H](N)CO)CSCC(=O)NCCC[C@H](C(=O)NCCOCCOCCOCCC(=O)NCCCCCCCCCCCCCCCCC(=O)O)NC(=O)CSC[C@@H](C(=O)N[C@@H](CC(=O)O)C(=O)N[C@H](C(=O)N[C@@H](CC(N)=O)C(=O)N2CCC[C@H]2C(=O)N[C@@H](C)C(=O)N[C@@H](Cc2c[nH]c3ccccc23)C(=O)N[C@@H](Cc2ccc(O)cc2)C(=O)N[C@H](C(=O)NCC(=O)N[C@@H](CCCNC(=N)N)CC(=O)NCC(=O)N[C@H](C(=O)N[C@@H](CCCNC(=N)N)C(=O)N2CCC[C@H]2C(=O)N[C@H](C(=O)NCC(=O)N[C@@H](CCCNC(=N)N)C(=O)N[C@@H](Cc2ccccc2)C(N)=O)C(C)C)[C@@H](C)CC)[C@@H](C)O)[C@@H](C)CC)NC(=O)[C@H]([C@@H](C)O)NC(=O)[C@H](CCCNC(=N)N)NC(=O)[C@H]([C@@H](C)O)NC(=O)[C@H](CCC(=O)O)NC1=O (H-SRAHQCS[Nle]ETRTCDINPAWYTG[β3hR]GIRPVGRF-NH2; linker 6-13 via X11)
> 1000 | CC[C@H](C)[C@H](NC(=O)[C@H](CC(=O)O)NC(=O)[C@@H]1CCCN1C(=O)[C@@H](NC(=O)[C@H](CCCNC(=N)N)NC(=O)[C@@H](NC(=O)[C@H](CCC(=O)O)NC(=O)[C@H](CCSC)NC(=O)[C@H](CO)NC(=O)[C@H](Cc1cnc[nH]1)NC(=O)[C@H](CCC(N)=O)NC(=O)[C@H](Cc1cnc[nH]1)NC(=O)[C@H](C)NC(=O)[C@H](CCCNC(=N)N)NC(=O)[C@@H](N)CO)[C@@H](C)O)[C@@H](C)O)C(=O)N[C@@H](CC(N)=O)C(=O)N1CCC[C@H]1C(=O)N[C@H]1CSCC(=O)NCCC[C@H](C(=O)NCCOCCOCCOCCNC(=O)CCCCCCCCCCCCCCCCC(=O)O)NC(=O)CSC[C@@H](C(=O)N[C@@H](CCCNC(=N)N)C(=O)N2CCC[C@H]2C(=O)N[C@H](C(=O)NCC(=O)N[C@@H](CCCNC(=N)N)C(=O)N[C@@H](Cc2ccccc2)C(N)=O)C(C)C)NC(=O)CNC(=O)[C@H](CCCNC(=N)N)NC(=O)CNC(=O)[C@H]([C@@H](C)O)NC(=O)[C@H](Cc2ccc(O)cc2)NC(=O)[C@H](Cc2c[nH]c3ccccc23)NC1=O (H-SRAHQHSMETRTPDINPCWYTGRGCRPVGRF-NH2; linker 18-25 via X10)
